US11371097B2, “Articles for diagnosis of liver fibrosis” (THE GOVERNMENT OF THE UNITED STATES, as represented by THE …, priority 2015, dated 2022)
“And” between values parts separate entries of the source, which are not always exact repeats. Identical values can stand only once. Like-named read-outs stand apart in the source and are kept apart here.

Experiments:
liver [1] = conditions: cited from earlier work
Timp1 = experiment: qPCR of liver RNA: Timp1; assay type: in vivo, Male Sprague-Dawley rats; conditions: across dose groups, vs control
Experimental: (§1) Working on dry ice, a portion (−10 mg) of flash-frozen liver was cut from each sample and transferred to a clean, labeled tube. Total RNA was then isolated using Qiagen's miRNeasy 96 kit (Qiagen, Valencia, Calif.) following manufacturer's instructions with a final elution volume of −150 μL (2×75 μL). The quality and quantity of RNA samples were evaluated with a 2100 Bioanalyzer (Agilent Technologies, Santa Clara, Calif.), using the Agilent RNA 6000 Nano Reagents and a multiwell NanoDrop 8000 spectrophotometer (Thermo Fisher Scientific, Waltham, Mass.).
Using 1 μg RNA input, cDNA was generated using a QuantiTect Reverse Transcription kit (Qiagen, Valencia, Calif.) following manufacturer's instructions. Applied Biosystems SYBR Green Master Mix was used in a 20 μL qPCR reaction with 2 μL of cDNA template and a 2.tM final concentration of each primer. A total of five genes were targeted (Gapdh, Actb, Timp1, Tgfbl, and Psma5), two of which served as the endogenous controls (Gapdh and Actb). An Applied Biosystems 7500 Real-Time PCR System (Applied Biosystems, Foster City, Calif.) was used for thermal cycling and fluorescence detection using the default settings for Quantitation-Comparative CT with SYBR® . . . Green Reagents which uses the following scheme: 95° C. for 10 minutes followed by 40 cycles of: 95° C. for 15 seconds, 60° C. for 1 minute, and a fluorescence signal read. […]

[2] = assay type: in vivo, Male Sprague-Dawley rats
Experimental: (§2) In vivo rat experiments were performed at Integrated Laboratory Systems (ILS, Research Triangle Park, NC). ILS's Institutional Animal Care and Use Committee approved all experimental procedures. Research was conducted in compliance with the Animal Welfare Act, and other Federal statutes and regulations relating to animals and experiments involving animals and adheres to principles stated in the “Guide for Care and Use of Laboratory Animals” as prepared by the Committee on Care and Use of Laboratory Animals of the Institute of Laboratory Animal Resources, National Research Council in facilities that are fully accredited by the Association for Assessment and Accreditation of Laboratory Animal Care, International. Male Sprague-Dawley rats (CD IGS [CRL:CD (SD)]) were purchased from Charles River Laboratories (Stone Ridge, N.Y.). Rats weighing 215-245 g (8 weeks old) were used. Briefly, rats were housed two per cage with a rat tunnel enrichment device (Bio-Serve, Frenchtown, N.J.). Rats were fed a Purina Rodent Diet No. 5002 (Ralston Purina Co., St. Louis, Mo.), supplied ad libitum. Animals received reverse osmosis-treated tap water (City of Durham, N.C.) ad libitum, which was changed at least once weekly. Controls in the animal rooms were set to maintain temperatures between 20-In vivo rat experiments were performed at Integrated Laboratory Systems (ILS, Research Triangle Park, NC). ILS's Institutional Animal Care and Use Committee approved all experimental procedures. Research was conducted in compliance with the Animal Welfare Act, and other Federal statutes and regulations relating to animals and experiments involving animals and adheres to principles stated in the “Guide for Care and Use of Laboratory Animals” as prepared by the Committee on Care and Use of Laboratory Animals of the Institute of Laboratory Animal Resources, National Research Council in facilities that are fully accredited by the Association for Assessment and Accreditation of Laboratory Animal Care, International. Male Sprague-Dawley rats (CD IGS [CRL:CD (SD)]) were purchased from Charles River Laboratories (Stone Ridge, N.Y.). Rats weighing 215-245 g (8 weeks old) were used. Briefly, rats were housed two per cage with a rat tunnel enrichment device (Bio-Serve, Frenchtown, N.J.). Rats were fed a Purina Rodent Diet No. 5002 (Ralston Purina Co., St. Louis, Mo.), supplied ad libitum. Animals received reverse osmosis-treated tap water (City of Durham, N.C.) ad libitum, which was changed at least once weekly. Controls in the animal rooms were set to maintain temperatures between 20-25° C. with a relative humidity of 30-70% and a 12-hour light/12-hour dark cycle, lights on at 6:00 AM. Clinically healthy animals were assigned to dose groups using a procedure that stratifies animals across groups by body weight such that mean body weight of each group was not statistically different from any other group using analysis of variance (Statistical Analysis System version 9.2, SAS Institute, Cary, N.C.). Animals were dosed by oral gavage for five consecutive days (+10 minutes from the previous day's dose administration time). Volume was based upon daily body weight.
(§3) Animals were observed cageside one hour following daily dose administration, then 1-2 times per day during dosing regimens. Body weights were measured daily prior to dose administration, and prior to euthanasia. Twenty-four hours after the final dose administration, animals were anesthetized with isoflurane then euthanized by exsanguination followed by decapitation. Livers were harvested at necropsy and weighed to within 0.1 g. One half of the left lobe of the liver was fixed in 10% formalin. The remaining half of the left lobe of the liver was flash frozen in liquid nitrogen, then stored below −70° C. Liver specimens were frozen in less than three minutes from time of death.

Tgfb1 = experiment: qPCR of liver RNA: Tgfb1; assay type: in vivo, Male Sprague-Dawley rats; conditions: liver, across dose groups, vs control
Experimental: as §1
Using 1 μg RNA input, cDNA was generated using a QuantiTect Reverse Transcription kit (Qiagen, Valencia, Calif.) following manufacturer's instructions. Applied Biosystems SYBR Green Master Mix was used in a 20 μL qPCR reaction with 2 μL of cDNA template and a 2.tM final concentration of each primer. A total of five genes were targeted (Gapdh, Actb, Timp1, Tgfbl, and Psma5), two of which served as the endogenous controls (Gapdh and Actb). An Applied Biosystems 7500 Real-Time PCR System (Applied Biosystems, Foster City, Calif.) was used for thermal cycling and fluorescence detection using the default settings for Quantitation-Comparative CT with SYBR® . . . Green Reagents which uses the following scheme: 95° C. for 10 minutes followed by 40 cycles of: 95° C. for 15 seconds, 60° C. for 1 minute, and a fluorescence signal read. Al! primers were obtained from Integrated DNA Technology's PrimeTime qPCR primer library (Integrated DNA Technologies, Coralville, Iowa).
Data was imported into GraphPad Prism (GraphPad Software, Inc.; LaJolla, Calif.) for analysis. A nonparametric Kruskal-Wallis analysis of variance by ranks with post hoc […] multiple comparison test was used to determine statistical difference among dose groups. A one sample t-test compared to a theoretical mean of 1.0 fold change was used to determine difference from control for each dose group. A p-value<0.05 was used as a cutoff for statistical significance.

liver [3] = assay type: in vivo, Male Sprague-Dawley rats
Experimental: All chemical compounds were diluted in corn oil (CAS No. 8001-30-7) (MP Biomedicals, LLC (Solon, Ohio)). The dose volume was 5 mL/kg. Doses were selected based on doses published in the DrugMatrix database, the National Toxicology Program reports, and ATSDR reports.
as §2
as §3, with “The remaining half of the left lobe of the liver was flash frozen in liquid nitrogen, then stored below −70° C. Liver specimens were frozen in less than three minutes from time of death.” left out

[4] = system: 67 genes on the fibrosis gene panel; experiment: Multiplexed fibrosis gene panel (QuantiGene 2.0 Plex / Bioplex) on liver RNA; conditions: liver, 67 genes
Experimental: mRNA is isolated and purified from lysed tissue biopsy specimens. The target mRNA is incubated with beads conjugated to capture probes (each probe is an oligonucleotides specific for one of the genes in the panel). The target is hybridized to the probe by a capture extender-capture probe interaction. Specific mRNA targets hybridize overnight to the respective beads. The signal is amplified by incubating mRNA-capture probe pairs by affixing an amplifier affixed to a biotinylated label probe. Streptavidin-conjugated phycoerythrin (SAPE) is bound to the biotinylated probe to amplify the signal. The signal is detected and quantified by Bioplex suspension array instrumentation, which measures the SAPE fluorescence signal proportional to the amount of mRNA transcripts captured by the bead.
Candidate genes identified by co-expression modules and pathway/network approaches were fabricated into a custom gene panel using a commercial source (the QuantiGene 2.0 Plex assay, Affymetrix, Santa Clara, Calif.). A total of 71 genes plus 3 housekeeping genes were selected. Using 150 ng RNA input, samples were processed following manufacturer's instructions for purified RNA with use of the HandHeld Magnetic Plate Washer. Plates were read immediately following the final wash using the BioPlex 200 instrument (BioRad, Hercules, Calif.). The following parameters were set on the BioPlex instrument: sample size=100 μL; DD Gate=5,000-25,000; Timeout=45 sec; Bead Event/Bead Region=100.
For each sample, the average signal intensity was determined as recommended by the manufacturer. Duplicates were averaged. The average background signal for each gene was subtracted. Assay limit of detection was determined by adding three standard deviations of assay background signals to the average intensity of the background control wells. All intensities lower than the limit of detection for each probe was set to one unit above the probe's limit of detection. Probes with all intensities below the assay limit of detection were removed from the final analysis. The test gene signal was divided by the average intensities of the three normalization genes (Gapdh, Hprt1, Ppib). For each test gene, the fold change was calculated by dividing the normalized value for the treated samples by the normalized value of the vehicle-treated controls. Fold changes were plotted as log2 fold change. Gene expression data were imported into Partek Genomics Suite 6.0 (Partek, Inc., St. Louis, Mo.). Principal component analysis was used for multivariate interpretation to determine sources of variation across sample groups (Joliffe I T, Morgan B J. Principal component analysis and exploratory factor analysis. Statistical methods in medical research 1992; 1(1):69-95). Differentially expressed genes were determined by analysis of variance (ANOVA) with contrasts, setting the ANOVA factors as toxicant and the histopathological endpoint of fibrosis (any score >0). ANOVA variables were fibrosis score 0 (none) vs. score of >0 (minimal, mild, moderate, and marked). For hierarchical biclustering, differentially expressed genes were standardized by setting the genes expressed to a mean of zero and scaling to a standard deviation of one. Euclidean geometry was used to cluster row and column dissimilarity using a method of average linkage.
Chemical-dose groups were down-selected based on histopathology to conform to the 96-well assay format of the multiplexed panel of presumptive fibrosis genes. Three of the four dose groups were evaluated for the fibrogenic chemicals allyl alcohol and 4,4′-methylenedianiline. A single dose was selected with group-matched vehicle controls for each of the remaining chemicals. […] The highest dose of bromobenzene was selected because the vacuolation pathology was only observed at this dose.
Isolated liver RNA was incubated with microbead-bound capture probes specific for the 71 presumptive fibrogenic genes and three housekeeping normalization genes.

[5] = 5-7 days oral administration or intraperitoneal injection, various doses
[6] = Allyl Alcohol 9.7 mg/kg, animals 9-12
[7] = Allyl Alcohol 45 mg/kg, animals 17, 18, 20
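Throughout, for Cytoplasmic Alteration: Severity grades from None 0% through Minimal Mild Moderate to Marked over 80% tissue affected.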
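Throughout, for Inflammation: Severity grades from None 0% through Minimal Mild Moderate to Marked over 80% tissue affected.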
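Throughout, for Vacuolation: Severity grades from None 0% through Minimal Mild Moderate to Marked over 80% tissue affected.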

Question: For `S=C=Nc1cccc2ccccc12` [1-naphthyl isothiocyanate], which “Fibrosis score in the DrugMatrix study” value (liver [1]; rat, in vivo) is on record?
Answer: scored fibrosis-positive

Question: For `CC(C)(Oc1ccc(CCNC(=O)c2ccc(Cl)cc2)cc1)C(=O)O` [bezafibrate], which “Fibrosis score in the DrugMatrix study” value (liver [1]; [5]) is on record?
Answer: scored fibrosis-positive

Question: Which “Fibrosis score in the DrugMatrix study” value (liver [1]; [5]) does the source give for `COc1ccccc1OCCNCC(O)COc1cccc2[nH]c3ccccc3c12` (stereo not shown) [carvedilol] here?
Answer: scored fibrosis-positive

Question: With `CC=CC(=O)N(CC)c1ccccc1C` [crotamiton] as the compound, how does the “Fibrosis score in the DrugMatrix study” value (liver [1]; [5]) read?
Answer: scored fibrosis-positive

Question: With `C[C@]12CC[C@H]3[C@@H](CCC4=CC(=O)CC[C@@]43C)[C@@H]1CC[C@@H]2O` [testosterone] as the compound, how does the “Fibrosis score in the DrugMatrix study” value (liver [1]; [5]) read?
Answer: scored fibrosis-positive

Question: With allyl alcohol as the compound, how does the “Timp1 gene expression by qPCR” value (Timp1) read?
Answer: showed a dose-dependent increase

Question: What about the “Body weight gain over the five experimental dosing days” value ([2]; dose groups) of the same compound?
Answer: increase in body weight gain

Question: And the “Body weight change over the five-day exposure interval” value ([2]; highest dose(s))?
Answer: gained less weight over the five-day exposure interval than their low-dose counterparts

Question: What about the “Tgfb1 gene expression by qPCR” value (Tgfb1) of the same compound?
Answer: showed a dose-dependent increase

Question: What about the “Fibrosis score in the DrugMatrix study” value (liver [1]; [5]) of the same compound?
Answer: scored fibrosis-positive

Question: And the “Bile Duct Hyperplasia and Fibroplasia” value (liver [3]; [6])?
Answer: 0

Question: And the “Cytoplasmic Alteration” value (liver [3]; [6])?
Answer: 1

Question: And the Inflammation (liver [3]; [6])?
Answer: 0

Question: And the Necrosis (liver [3]; [6])?
Answer: 0

Question: And the Vacuolation (liver [3]; [6])?
Answer: 0

Question: And the Vacuolation (liver [3]; Allyl Alcohol 20.9 mg/kg, animals 13-16)?
Answer: 0

Question: And the “Bile Duct Hyperplasia and Fibroplasia” value (liver [3]; [7])?
Answer: 3

Question: And the “Cytoplasmic Alteration” value (liver [3]; [7])?
Answer: 3 and 4 and 2

Question: And the Inflammation (liver [3]; [7])?
Answer: 3 and 2

Question: And the Necrosis (liver [3]; [7])?
Answer: 3 and 4

Question: What about the Vacuolation (liver [3]; [7]) of the same compound?
Answer: 0

Question: What about the “Combined histopathological scores as percent of animals with pathology” value (liver [3]; across dose groups, five days (figure legend)) of the same compound?
Answer: dose-dependent increase in severe pathology

Question: What about the “Fibrosis histopathology in the present study” value (liver [3]; high doses) of the same compound?
Answer: associated with fibrosis histopathology

Question: And the “Fibrosis histopathology in the present study” value (liver [3]; high doses, listed as Allyl alcohol)?
Answer: scored positive for fibrosis

Question: And the Fibrosis histopathology (liver [3]; low-dose (carbon tetrachloride: all doses))?
Answer: without fibrosis

Question: And the Degree of fibrosis (liver [3]; oral gavage five days, across doses)?
Answer: dose-dependent increase in the degree of fibrosis

Question: What about the “Histopathology: bile duct hyperplasia, fibrosis, necrosis” value (liver [3]; oral gavage five days, high doses) of the same compound?
Answer: caused bile duct hyperplasia comorbid with fibrosis and necrosis

Question: What about the “Hierarchical biclustering of log2 fold-changes in panel gene expression” value [4] of the same compound?
Answer: clustered with the non-fibrogenic chemical-dose groups
